Data taken from patent US20160002294A1, “NOVEL POLYPEPTIDES HAVING SATIETY HORMONE RELEASING ACTIVITY” (SOLAE LLC, priority 2013, published 2016).
Where two headings read alike, the source gives them in different places.

Tests used:
STC-1 cells [1] = details: 4 h
Protocol: To assay for CCK release activity, SEQ ID NO: 1 was dissolved in Dulbecco's phosphate buffered saline (D-PBS) at 10 mg/ml. This solution was then diluted to between 0.002 and 4 mg/ml with d-PBS, then added to media of STC-1 cells (passage 25 to 28) in 1:1 ratio of D-PBS and Dulbecco's Modified Eagle's Medium (DMEM-high glucose) and incubated with the cells at 37° C. (99° F.) and a CO2 level of 5% for 4 hours. The solution containing SEQ ID NO: 1 was added to cells at a variety of concentrations ranging from 0.001 to 2 mg/ml to generate a dose-response curve.
Following the incubation period, concentrations of CCK released by STC-1 cells into the media were assayed using a commercially available immunoassay kit for CCK detection from Phoenix Pharmaceuticals, Burlingame, Calif. (catalogue number EK-069-04). Assays were performed according to the manufacturer's instructions using a standard curve covering a range of concentrations from 0.4 to 1000 pg/well. Absorbance was measured at a wavelength of 450 nm.
CCK quantities obtained from each tested concentration of SEQ ID NO: 1 were plotted vs. log concentration of peptide. A dose-response curve was then generated by fitting the data with a logistic function using OriginLab graphing software.
Each variant was assayed for CCK activity at 2 mg/ml using the method described in Example 1.

STC-1 cells [2] = details: 2 h
Protocol: To assay for GLP-1 release activity, SEQ ID NO: 1 was dissolved in Dulbecco's phosphate buffered saline (D-PBS) at 10 mg/ml. This solution was diluted to between 0.002 and 4 mg/ml with D-PBS, then added to media of STC-1 cells (passage 25 to 28) in 1:1 ratio of D-PBS and Dulbecco's Modified Eagle's Medium (DMEM-high glucose) and incubated with the cells at 37° C. (99° F.) and a CO2 level of 5% for 2 hours. The solution containing SEQ ID NO: 1 was added to cells at a variety of concentrations ranging from 0.001 to 2 mg/ml to generate a dose-response curve.
Following the incubation period, concentrations of GLP-1 released by the STC-1 cells into the media were assayed using a commercially available immunoassay kit for GLP-1 detection from Phoenix Pharmaceuticals, Burlingame, CA (catalogue number EK-028-11). Assays were performed according to the manufacturer's instructions using a standard curve covering a range of concentrations from 0.4 to 1000 pg/well. Absorbance was measured at a wavelength of 450 nm.
GLP-1 quantities obtained from each tested concentration of SEQ ID NO: 1 were plotted vs. log concentration of peptide. A dose-response curve was then generated by fitting the data with a logistic function using OriginLab graphing software.
Each variant was assayed for GLP-1 activity at 2 mg/ml using the method described in Example 2.

An EC50 (STC-1 cells [1]) of 43 µM and an EC50 (STC-1 cells [2]) of 186 µM were found for “H-TSLDFPALSWLRL-OH [SEQ ID NO: 1, NH2-TSLDFPALSWLRL-COOH]” in this work.
